Measured values taken from patent US9416126B2, “Compounds inhibiting leucine-rich repeat kinase enzyme activity” (Merck Sharp & Dohme Corp., priority 2013, dated 2016).

Target: LRRK2(G2019S mutation, GST-LRRK2(amino acids 970-2527)) (Homo sapiens (Human), UniProt Q5S007, G2019S)
Assay: LRRK2 Km ATP LanthaScreen Assay
Assay type: biochemical
Conditions: Examples N1-N25
Method in brief: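 TR-FRET: GST-LRRK2 970-2527 G2019S (2.5 nM solution) preincubated 30 min with compound (98 μM top, 1:2.15 dilutions), then 800 nM fluorescein-LRRKtide and 184 μM ATP solution added for 60 min at room temperature in Tris pH 8.5 buffer. Stopped with EDTA and Tb anti-phospho-LRRKtide antibody; IC50 is a mean of several tests.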

Chain of LRRK2(G2019S mutation, GST-LRRK2(amino acids 970-2527)) (Q5S007 970-2527 G2019S): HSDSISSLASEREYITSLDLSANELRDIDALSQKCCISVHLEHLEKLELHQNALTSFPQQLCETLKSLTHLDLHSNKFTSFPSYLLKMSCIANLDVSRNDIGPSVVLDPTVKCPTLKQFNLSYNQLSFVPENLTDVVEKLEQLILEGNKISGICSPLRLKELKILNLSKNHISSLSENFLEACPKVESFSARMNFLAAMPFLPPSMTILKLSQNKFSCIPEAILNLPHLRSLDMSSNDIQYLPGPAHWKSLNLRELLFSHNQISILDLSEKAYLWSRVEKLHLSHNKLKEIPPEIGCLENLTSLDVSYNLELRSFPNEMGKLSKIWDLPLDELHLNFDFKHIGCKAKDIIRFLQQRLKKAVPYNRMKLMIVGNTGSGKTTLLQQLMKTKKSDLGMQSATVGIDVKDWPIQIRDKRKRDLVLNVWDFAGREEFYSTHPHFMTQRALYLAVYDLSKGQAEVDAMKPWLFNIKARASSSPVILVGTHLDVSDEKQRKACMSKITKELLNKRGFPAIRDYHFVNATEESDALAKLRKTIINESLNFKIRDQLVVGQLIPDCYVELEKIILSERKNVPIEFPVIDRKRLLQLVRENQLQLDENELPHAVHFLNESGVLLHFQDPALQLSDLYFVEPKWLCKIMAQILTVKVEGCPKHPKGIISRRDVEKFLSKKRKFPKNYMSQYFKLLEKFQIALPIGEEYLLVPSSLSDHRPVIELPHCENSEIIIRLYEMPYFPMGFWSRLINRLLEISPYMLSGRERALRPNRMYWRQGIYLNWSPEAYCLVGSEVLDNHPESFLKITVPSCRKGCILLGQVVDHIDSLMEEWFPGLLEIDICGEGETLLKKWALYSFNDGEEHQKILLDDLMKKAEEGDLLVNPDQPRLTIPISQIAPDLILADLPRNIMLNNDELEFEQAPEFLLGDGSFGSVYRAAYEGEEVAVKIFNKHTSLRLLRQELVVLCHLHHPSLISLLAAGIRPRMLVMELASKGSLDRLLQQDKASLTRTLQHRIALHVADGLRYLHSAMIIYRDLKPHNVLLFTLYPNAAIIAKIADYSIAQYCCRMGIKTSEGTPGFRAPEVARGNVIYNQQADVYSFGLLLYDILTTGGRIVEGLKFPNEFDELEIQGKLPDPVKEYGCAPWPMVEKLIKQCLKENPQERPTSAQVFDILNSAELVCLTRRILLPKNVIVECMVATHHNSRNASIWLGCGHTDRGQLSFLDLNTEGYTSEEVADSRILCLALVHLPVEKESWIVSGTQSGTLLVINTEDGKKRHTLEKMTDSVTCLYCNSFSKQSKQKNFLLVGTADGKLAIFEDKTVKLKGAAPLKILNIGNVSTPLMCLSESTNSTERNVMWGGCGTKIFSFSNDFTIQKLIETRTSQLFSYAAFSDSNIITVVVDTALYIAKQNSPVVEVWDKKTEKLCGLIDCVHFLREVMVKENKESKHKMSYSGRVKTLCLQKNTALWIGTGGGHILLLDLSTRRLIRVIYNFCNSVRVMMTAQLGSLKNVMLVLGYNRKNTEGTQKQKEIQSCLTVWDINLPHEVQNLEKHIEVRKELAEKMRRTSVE

| Structure (SMILES) | IC50 [nM] |
| --- | --- |
| CC(C)Oc1cc2c(-c3cc(N4CCn5ncnc5C4)ncn3)n[nH]c2cc1F [Example N1] | 7.1 |
| COCC(=O)N1CCN(c2cc(-c3n[nH]c4cc(F)c(OC(C)C)cc34)ncn2)CC1 [Example N2] | 5.6 |
| CC(C)Oc1cc2c(-c3cc(N4CCOC(C(F)(F)F)C4)ncn3)n[nH]c2cc1F (centres unmarked) [Example N3] | 26.6 |
| CC(C)Oc1cc2c(-c3cc(N4CCN(C5CCS(=O)(=O)C5)CC4)ncn3)n[nH]c2cc1F (centres unmarked) [Example N4] | 2.5 |
| CC(C)Oc1cc2c(-c3cc(N4CCn5nc(C(F)(F)F)nc5C4C)ncn3)n[nH]c2cc1F (centres unmarked) [Example N5] | 176 |
| CC(C)Oc1cc2c(-c3cc(N4CC[C@H](CO)C4)ncn3)n[nH]c2cc1F [Example N6] | 10.2 |
| CC(C)Oc1cc2c(-c3cc(N4CC[C@@H](CO)C4)ncn3)n[nH]c2cc1F [Example N7] | 2.9 |
| CC(C)Oc1cc2c(-c3cc(N4CCC(F)(F)C4)ncn3)n[nH]c2cc1F [Example N8] | 6.1 |
| CC(C)Oc1cc2c(-c3cc(N4CC[S+]([O-])CC4)ncn3)n[nH]c2cc1F [Example N9] | 6.1 |
| CC(C)Oc1cc2c(-c3cc(N4CCc5oncc5C4)ncn3)n[nH]c2cc1F [Example N10] | 9.8 |
| CC(C)Oc1cc2c(-c3cc(N4C5CCC4COC5)ncn3)n[nH]c2cc1F [Example N11] | 18.2 |
| COCC1CN(c2cc(-c3n[nH]c4cc(F)c(OC(C)C)cc34)ncn2)CCO1 (centres unmarked) [Example N12] | 2.9 |
| CC(C)Oc1cc2c(-c3cc(N4CCC(n5cccn5)C4)ncn3)n[nH]c2cc1F (centres unmarked) [Example N13] | 6.1 |
| Cc1nc2c(o1)CCN(c1cc(-c3n[nH]c4cc(F)c(OC(C)C)cc34)ncn1)C2 [Example N14] | 6.4 |
| CC(C)Oc1cc2c(-c3cc(N4CCOC(C)(C)C4)ncn3)n[nH]c2cc1F [Example N15] | 6.2 |
| CC(C)Oc1cc2c(-c3cc(N4CCC(F)(C#N)CC4)ncn3)n[nH]c2cc1F [Example N16] | 17.7 |
| CO[C@H]1CN(c2cc(-c3n[nH]c4cc(F)c(OC(C)C)cc34)ncn2)C[C@@H]1O [Example N17] | 7.7 |
| CC(C)Oc1cc2c(-c3cc(N4C[C@H](O)[C@@H](N(C)C)C4)ncn3)n[nH]c2cc1F [Example N18] | 7.9 |
| CC(C)Oc1cc2c(-c3cc(N4CCS(=O)(=O)CC4)ncn3)n[nH]c2cc1F [Example N19] | 24 |
| CC(C)Oc1cc2c(-c3cc(N4CCC(F)(CO)CC4)ncn3)n[nH]c2cc1F [Example N20] | 2.3 |
| CCOC(=O)N1CCN(c2cc(-c3n[nH]c4cc(F)c(OC(C)C)cc34)ncn2)CC1 [Example N21] | 6.1 |
| CC(C)Oc1cc2c(-c3cc(N4CC[C@H](N(C)C)C4)ncn3)n[nH]c2cc1F [Example N22] | 7 |
| CC(C)Oc1cc2c(-c3cc(N4CCN(CCCO)CC4)ncn3)n[nH]c2cc1F [Example N23] | 3.1 |
| CC(C)Oc1cc2c(-c3cc(N4[C@H](C)COC[C@H]4C)ncn3)n[nH]c2cc1F [Example N24] | 62.1 |
| CC(C)Oc1cc2c(-c3cc(N4[C@H](C)COC[C@@H]4C)ncn3)n[nH]c2cc1F [Example N25] | 5.4 |

Same assay, conditions: Examples O1-O23

| Structure (SMILES) | IC50 [nM] |
| --- | --- |
| COC[C@H](C)Oc1ccc2[nH]nc(-c3cc(N4CCn5ncnc5C4)ncn3)c2c1 [Example O1] | 20.2 |
| COC[C@H](C)Oc1ccc2[nH]nc(-c3cc(N4CCOC[C@H]4C)ncn3)c2c1 [Example O2] | 20.2 |
| COC[C@H](C)Oc1ccc2[nH]nc(-c3cc(N4CC[C@@H](CF)C4)ncn3)c2c1 [Example O3] | 2.7 |
| COC[C@H](C)Oc1ccc2[nH]nc(-c3cc(N4CCCC(F)(F)C4)ncn3)c2c1 [Example O4] | 2.8 |
| COC[C@H](C)Oc1ccc2[nH]nc(-c3cc(N4CCOC(C(F)(F)F)C4)ncn3)c2c1 (some centres unmarked) [Example O5] | 8.6 |
| COC[C@H](C)Oc1ccc2[nH]nc(-c3cc(N4CC[C@H](CO)C4)ncn3)c2c1 [Example O6] | 6 |
| COC[C@H](C)Oc1ccc2[nH]nc(-c3cc(N4CC[C@@H](CO)C4)ncn3)c2c1 [Example O7] | 3.6 |
| COC[C@H](C)Oc1ccc2[nH]nc(-c3cc(N4CCC(F)(F)C4)ncn3)c2c1 [Example O8] | 12.6 |
| COC[C@H](C)Oc1ccc2[nH]nc(-c3cc(N4CCN(C)C(=O)C4)ncn3)c2c1 [Example O9] | 10.9 |
| COC[C@H](C)Oc1ccc2[nH]nc(-c3cc(N4CC(OC)C4)ncn3)c2c1 [Example O10] | 5.6 |
| COC[C@H](C)Oc1ccc2[nH]nc(-c3cc(N4CCN(C5CC5)CC4)ncn3)c2c1 [Example O11] | 4.1 |
| COC[C@H](C)Oc1ccc2[nH]nc(-c3cc(N4C[C@H](F)[C@@H](F)C4)ncn3)c2c1 [Example O12] | 7.9 |
| COCC1CN(c2cc(-c3n[nH]c4ccc(O[C@@H](C)COC)cc34)ncn2)CCO1 (some centres unmarked) [Example O13] | 3.6 |
| COC[C@H](C)Oc1ccc2[nH]nc(-c3cc(N4CC(F)(F)C4)ncn3)c2c1 [Example O14] | 7.6 |
| COC[C@H](C)Oc1ccc2[nH]nc(-c3cc(N4[C@H](C)COC[C@@H]4C)ncn3)c2c1 [Example O15] | 7.4 |
| COC[C@H](C)Oc1ccc2[nH]nc(-c3cc(N4CCOC[C@@H]4C)ncn3)c2c1 [Example O16] | 6 |
| COC[C@H](C)Oc1ccc2[nH]nc(-c3cc(N4CCc5oc(C)nc5C4)ncn3)c2c1 [Example O17] | 8.4 |
| COC[C@H](C)Oc1ccc2[nH]nc(-c3cc(N4CCOC(C)(C)C4)ncn3)c2c1 [Example O18] | 5.3 |
| COC[C@H](C)Oc1ccc2[nH]nc(-c3cc(N4CCC(F)(F)CC4)ncn3)c2c1 [Example O19] | 8 |
| COC[C@H](C)Oc1ccc2[nH]nc(-c3cc(N4CCN5C(=O)OCC5C4)ncn3)c2c1 (some centres unmarked) [Example O20] | 8.8 |
| COC[C@H](C)Oc1ccc2[nH]nc(-c3cc(N4C[C@H](OC)[C@@H](O)C4)ncn3)c2c1 [Example O21] | 19.8 |
| COC[C@H](C)Oc1ccc2[nH]nc(-c3cc(N4C[C@H](O)[C@@H](N(C)C)C4)ncn3)c2c1 [Example O22] | 6.6 |
| COC[C@H](C)Oc1ccc2[nH]nc(-c3cc(N4CCC5(CC4)CNC(=O)CO5)ncn3)c2c1 [Example O23] | 3.5 |

Same assay, conditions: Examples P1-P18

| Structure (SMILES) | IC50 [nM] |
| --- | --- |
| N#Cc1cc(-c2ccc3[nH]nc(-c4cc(N5CCOCC5)ncn4)c3c2)ccn1 [Example P1] | 340 |
| c1nc(-c2n[nH]c3ccc(-c4ccc5ncnn5c4)cc23)cc(N2CCOCC2)n1 [Example P2] | 193 |
| c1cc(-c2ccc3[nH]nc(-c4cc(N5CCOCC5)ncn4)c3c2)ccn1 [Example P3] | 96.7 |
| Cc1noc(C)c1-c1ccc2[nH]nc(-c3cc(N4CCOCC4)ncn3)c2c1 [Example P4] | 48.7 |
| c1ncc(-c2ccc3[nH]nc(-c4cc(N5CCOCC5)ncn4)c3c2)cn1 [Example P5] | 40.7 |
| N#Cc1ccc(-c2ccc3[nH]nc(-c4cc(N5CCOCC5)ncn4)c3c2)cc1 [Example P6] | 150 |
| N#Cc1cccc(-c2ccc3[nH]nc(-c4cc(N5CCOCC5)ncn4)c3c2)c1 [Example P7] | 81.3 |
| CCN(CC)C(=O)c1ccc(-c2ccc3[nH]nc(-c4cc(N5CCOCC5)ncn4)c3c2)cc1 [Example P8] | 608 |
| O=S(=O)(c1ccc(-c2ccc3[nH]nc(-c4cc(N5CCOCC5)ncn4)c3c2)cc1)N1CCCC1 [Example P9] | 914 |
| COc1cnc(-c2ccc3[nH]nc(-c4cc(N5CCOCC5)ncn4)c3c2)cn1 [Example P10] | 272 |
| COc1cncc(-c2ccc3[nH]nc(-c4cc(N5CCOCC5)ncn4)c3c2)n1 [Example P11] | 18.3 |
| c1nc(-c2n[nH]c3ccc(-c4ccc5nncn5c4)cc23)cc(N2CCOCC2)n1 [Example P12] | 56.1 |

Same assay, conditions: Km ATP (184 μM ATP solution), G2019S LRRK2, mean IC50

| Structure (SMILES) | IC50 [nM] |
| --- | --- |
| C[C@H]1CN(c2cc(-c3n[nH]c4ccc(-c5cnn(C)c5)cc34)ncn2)CCO1 [Example M12] | 2.2 |
| Cn1cc(-c2ccc3[nH]nc(-c4cc(N5C[C@H](F)[C@@H](F)C5)ncn4)c3c2)cn1 [Example M13] | 3.8 |
| Cc1nc2c(o1)CCN(c1cc(-c3n[nH]c4ccc(-c5cnn(C)c5)cc34)ncn1)C2 [Example M14] | 2.8 |
| Cn1cc(-c2ccc3[nH]nc(-c4cc(N5CCN6C(=O)OCC6C5)ncn4)c3c2)cn1 (centres unmarked) [Example M15] | 6.3 |
| Cn1cc(-c2ccc3[nH]nc(-c4cc(N5CCCC6(CCO6)C5)ncn4)c3c2)cn1 (centres unmarked) [Example M16] | 10.9 |
| CN(C)[C@H]1CN(c2cc(-c3n[nH]c4ccc(-c5cnn(C)c5)cc34)ncn2)C[C@@H]1O [Example M17] | 13.5 |
| Cn1cc(-c2ccc3[nH]nc(-c4cc(N5CCS(=O)(=O)CC5)ncn4)c3c2)cn1 [Example M18] | 22.4 |
| CN(C)[C@H]1CCN(c2cc(-c3n[nH]c4ccc(-c5cnn(C)c5)cc34)ncn2)C1 [Example M19] | 4.6 |
| Cn1cc(-c2ccc3[nH]nc(-c4cc(N5CCOC(C)(C)C5)ncn4)c3c2)cn1 [Example M20] | 8.9 |
| Cn1cc(-c2ccc3[nH]nc(-c4cc(N5CCC(F)(F)CC5)ncn4)c3c2)cn1 [Example M21] | 4.6 |
| Cn1cc(-c2ccc3[nH]nc(-c4cc(N5CCC(n6cccn6)C5)ncn4)c3c2)cn1 (centres unmarked) [Example M22] | 3.6 |
| CO[C@H]1CN(c2cc(-c3n[nH]c4ccc(-c5cnn(C)c5)cc34)ncn2)C[C@@H]1O [Example M23] | 6 |
| Cn1cc(-c2ccc3[nH]nc(-c4cc(N5CCC(F)(CO)CC5)ncn4)c3c2)cn1 [Example M24] | 2.9 |
| Cn1cc(-c2ccc3[nH]nc(-c4cc(N5CCN(CCCO)CC5)ncn4)c3c2)cn1 [Example M25] | 3 |
| Cn1cc(-c2ccc3[nH]nc(-c4cc(N5CCC(F)(F)C5)ncn4)c3c2)cn1 [Example M26] | 3.7 |
| Cn1cc(-c2ccc3[nH]nc(-c4cc(N5CCC(F)(C#N)CC5)ncn4)c3c2)cn1 [Example M27] | 3 |
| Cn1cc(-c2ccc3[nH]nc(-c4cc(N5CCc6nccnc6C5)ncn4)c3c2)cn1 [Example M28] | 2.7 |
